Experimental data published in patent US20240018161A1, “MODULATORS OF CYSTIC FIBROSIS TRANSMEMBRANE CONDUCTANCE REGULATOR” (VERTEX PHARMACEUTICALS INCORPORATED, priority 2020, published 2024).

The molecules below were run against T1, CFTR-mediated short-circuit current in F508del/MF-HBE cells (Homo sapiens, UniProt P13569, DEL508-508) (assay: HBE2 assay: Ussing chamber assay of CFTR-mediated short-circuit currents).
T1 construct: human bronchial epithelial (HBE) cells derived from CF subjects; endogenous in cells; host or cells: primary human bronchial epithelial cells from CF subjects (F508del/MF-HBE)
Format: cell-based
Experimental: 1. Ussing Chamber Assay of CFTR-Mediated Short-Circuit Currents
Ussing chamber experiments were performed using human bronchial epithelial (HBE) cells derived from CF subjects heterozygous for F508del and a minimal function CFTR mutation (F508del/MF-HBE) and cultured as previously described (Neuberger T, Burton B, Clark H, Van Goor F Methods Mol Biol 2011:741:39-54). After four days the apical media was removed, and the cells were grown at an air liquid interface for >14 days prior to use.
To isolate the CFTR-mediated short-circuit (ISC) current, F508del/MF-HBE grown on Costar® Snapwell™ cell culture inserts were mounted in an Ussing chamber and the transepithelial ISC was measured under voltage-clamp recording conditions (Vhold=0 mV) at 37° C. The basolateral solution contained (in mM) 145 NaCl, 0.83 K2HPO4, 3.3 KH2PO4, 1.2 MgCl2, 1.2 CaCl2, 10 Glucose, 10 HEPES (pH adjusted to 7.4 with NaOH) and the apical solution contained (in mM) 145 NaGluconate, 1.2 MgCl2, 1.2 CaCl2, 10 glucose, 10 HEPES (pH adjusted to 7.4 with NaOH) and 30 μM amiloride to block the epithelial sodium channel. Forskolin (20 μM) was added to the apical surface to activate CFTR, followed by apical addition of a CFTR inhibitor cocktail consisting of BPO, GlyH-101, and CFTR inhibitor 172 (each at 20 μM final assay concentration) to specifically isolate CFTR currents. The CFTR-mediated ISC (μA/cm^2) for each condition was determined from the peak forskolin response to the steady-state current following inhibition.
2. Identification of Corrector Compounds
The activity of the CFTR corrector compounds on the CFTR-mediated ISC was determined in Ussing chamber studies as described above. The F508del/MF-HBE cell cultures were either incubated with the corrector compounds at a range of concentrations in combination with 44 nM (6R,12R)-17-amino-12-methyl-6,15-bis(trifluoromethyl)-13,19-dioxa-3,4,18-triazatricyclo[12.3.1.12,5]nonadeca-1(18),2,4,14,16-pentaen-6-ol or were incubated with the corrector compounds at a single fixed concentration of 1 and 3 μM in combination with 44 nM (6R,12R)-17-amino-12-methyl-6,15-bis(trifluoromethyl)-13,19-dioxa-3,4,18-triazatricyclo[12.3.1.12,5]nonadeca-1(18),2,4,14,16-pentaen-6-ol for 18-24 hours at 37° C. and in the presence of […]. The concentration of corrector compounds with 44 nM (6R,12R)-17-amino-12-methyl-6,15-bis(trifluoromethyl)-13,19-dioxa-3,4,18-triazatricyclo[12.3.1.12,5]nonadeca-1(18),2,4,14,16-pentaen-6-ol during the 18-24 hours incubations was kept constant throughout the Ussing chamber measurement of the CFTR-mediated ISC to ensure compounds were present throughout the entire experiment.

T1 sequence (P13569 with tags, fused parts or gaps DEL508-508): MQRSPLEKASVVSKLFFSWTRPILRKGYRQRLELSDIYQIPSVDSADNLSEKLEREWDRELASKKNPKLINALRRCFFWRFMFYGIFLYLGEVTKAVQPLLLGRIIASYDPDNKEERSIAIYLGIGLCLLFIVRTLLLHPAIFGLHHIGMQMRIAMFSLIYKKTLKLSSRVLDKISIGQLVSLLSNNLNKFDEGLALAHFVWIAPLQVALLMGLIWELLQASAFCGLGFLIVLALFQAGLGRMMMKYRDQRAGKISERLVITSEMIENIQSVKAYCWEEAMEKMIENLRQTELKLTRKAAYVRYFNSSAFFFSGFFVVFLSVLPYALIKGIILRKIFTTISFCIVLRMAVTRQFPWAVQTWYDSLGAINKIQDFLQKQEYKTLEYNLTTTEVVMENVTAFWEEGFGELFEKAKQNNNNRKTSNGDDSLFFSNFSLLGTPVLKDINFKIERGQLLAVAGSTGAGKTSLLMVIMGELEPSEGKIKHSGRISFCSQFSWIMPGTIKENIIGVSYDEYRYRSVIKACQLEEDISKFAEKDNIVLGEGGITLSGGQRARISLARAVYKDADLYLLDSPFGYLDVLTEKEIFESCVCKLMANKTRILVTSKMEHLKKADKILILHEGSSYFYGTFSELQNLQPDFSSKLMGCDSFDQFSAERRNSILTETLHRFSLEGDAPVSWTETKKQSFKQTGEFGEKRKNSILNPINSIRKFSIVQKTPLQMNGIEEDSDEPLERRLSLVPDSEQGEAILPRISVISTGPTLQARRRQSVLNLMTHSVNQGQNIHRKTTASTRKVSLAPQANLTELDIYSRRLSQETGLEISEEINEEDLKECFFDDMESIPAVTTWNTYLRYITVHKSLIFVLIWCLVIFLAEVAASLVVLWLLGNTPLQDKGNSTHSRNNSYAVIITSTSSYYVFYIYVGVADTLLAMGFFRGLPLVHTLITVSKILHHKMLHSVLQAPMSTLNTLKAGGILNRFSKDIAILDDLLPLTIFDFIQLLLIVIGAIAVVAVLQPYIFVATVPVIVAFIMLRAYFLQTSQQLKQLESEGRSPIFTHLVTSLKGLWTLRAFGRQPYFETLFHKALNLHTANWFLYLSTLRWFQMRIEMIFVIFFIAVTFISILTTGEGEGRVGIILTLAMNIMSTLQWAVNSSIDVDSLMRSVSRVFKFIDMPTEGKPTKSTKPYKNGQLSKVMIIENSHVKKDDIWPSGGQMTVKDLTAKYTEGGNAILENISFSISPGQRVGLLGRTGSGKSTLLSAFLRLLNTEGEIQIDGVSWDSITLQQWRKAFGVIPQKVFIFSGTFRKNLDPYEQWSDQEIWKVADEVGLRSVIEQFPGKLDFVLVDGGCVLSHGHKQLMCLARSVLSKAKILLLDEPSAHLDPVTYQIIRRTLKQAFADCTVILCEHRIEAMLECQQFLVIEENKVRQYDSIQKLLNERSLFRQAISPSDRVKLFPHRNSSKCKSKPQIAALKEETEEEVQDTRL

Row | Compound | HBE2 Activity at 3 μM (%) | activation at 3 µM
1 | Cc1cccc(C)c1-c1cc2nc(n1)NS(=O)(=O)c1cccc(c1)C(=O)N1[C@@H](c3ncc(OC(C)C)cn3)CCC[C@@H](CC(C)C)[C@H]1CO2 (single isomer, unassigned) [Compound 398, 14-(2,6-Dimethylphenyl)-8-isobutyl-4-(5-isopropoxypyrimidin-2-yl)-18,18-dioxo-11-oxa-18λ^6-thia-3,15,17,24-tetrazatetracyclo[17.3.1.112,16.03,9]tetracosa-1(22),12,14,16(24),19(23),20-hexaen-2-one] | +++ (+++ is >60%) | –
2 | Cc1cccc(C)c1-c1cc2nc(n1)NS(=O)(=O)c1cccc(c1)C(=O)N1[C@@H](c3ncc(OC(C)C)cn3)CCC(C)(C)[C@H]1CO2 (single isomer, unassigned) [Compound 387, 13-(2,6-Dimethylphenyl)-4-(5-isopropoxypyrimidin-2-yl)-7,7-dimethyl-17,17-dioxo-10-oxa-17λ^6-thia-3,14,16,23-tetrazatetracyclo[16.3.1.111,15.03,8]tricosa-1(21),11,13,15(23),18(22),19-hexaen-2-one] | +++ (+++ is >60%) | –
3 | Cc1cccc(C)c1-c1cc2nc(n1)NS(=O)(=O)c1cccc(c1)C(=O)N1[C@@H](c3ncc(OC(C)C)cn3)CCC[C@@H](O2)[C@H]1CC(C)C (single isomer, unassigned) [Compound 408, 12-(2,6-Dimethylphenyl)-21-isobutyl-20-(5-isopropoxypyrimidin-2-yl)-8,8-dioxo-15-oxa-8λ^6-thia-1,9,11,22-tetrazatetracyclo[14.4.1.13,7.110,14]tricosa-3,5,7(23),10(22),11,13-hexaen-2-one] | +++ (+++ is >60%) | –
4 | Cc1cccc(C)c1-c1cc2nc(n1)NS(=O)(=O)c1cccc(c1)C(=O)N1[C@@H](c3cncc(N(C)C4CCC4)n3)CCC(O2)[C@H]1CC(C)C (single isomer, unassigned) [Compound 410] | – | > 60%
5 | Cc1cccc(C)c1-c1cc2nc(n1)NS(=O)(=O)c1cccc(c1)C(=O)N1[C@@H](CCCC[C@@H]1c1ncc(OCc3ccccc3)cn1)CO2 [Compound 419] | – | 30 to 60%
6 | Cc1cccc(C)c1-c1cc2nc(n1)NS(=O)(=O)c1cccc(c1)C(=O)N1[C@@H](c3ncc(OC(C)C)cn3)CCC[C@@H](O2)[C@H]1CC(C)C [Compound 421] | +++ (+++ is >60%) | –
7 | Cc1cccc(C)c1-c1cc2nc(n1)NS(=O)(=O)c1cccc(c1)C(=O)N1[C@@H](c3ncc(OC(C)C)cn3)CCC[C@@H](CC(C)C)[C@H]1CO2 (single isomer, unassigned) [Compound 397, 14-(2,6-dimethylphenyl)-8-isobutyl-4-(5-isopropoxypyrimidin-2-yl)-18,18-dioxo-11-oxa-18λ^6-thia-3,15,17,24-tetrazatetracyclo[17.3.1.112,16.03,9]tetracosa-1(22),12,14,16(24),19(23),20-hexaen-2-one] | +++ (+++ is >60%) | –
8 | Cc1cccc(C)c1-c1cc2nc(n1)NS(=O)(=O)c1cccc(c1)C(=O)N1[C@@H](c3ncc(OC(C)C)cn3)CCC[C@@H](CC(C)C)[C@H]1CO2 (single isomer, unassigned) [Compound 396, 14-(2,6-Dimethylphenyl)-8-isobutyl-4-(5-isopropoxypyrimidin-2-yl)-18,18-dioxo-11-oxa-18λ^6-thia-3,15,17,24-tetrazatetracyclo[17.3.1.112,16.03,9]tetracosa-1(22),12,14,16(24),19(23),20-hexaen-2-one] | + (+ is <30+) | –
9 | Cc1cccc(C)c1-c1cc2nc(n1)NS(=O)(=O)c1cccc(c1)C(=O)N1[C@H](CCC[C@@H]1C(=O)NCc1ccccc1)CO2 [Compound 415] | – | 30 to 60%
10 | Cc1cccc(C)c1-c1cc2nc(n1)NS(=O)(=O)c1cccc(c1)C(=O)N1C[C@@H](CCCC[C@@H]1c1ncc(OCc3ccccc3)cn1)O2 [Compound 417] | + (+ is <30+) | –
11 | Cc1cccc(C)c1-c1cc2nc(n1)NS(=O)(=O)c1cccc(c1)C(=O)N1[C@@H](c3ncc(OC(C)C)cn3)CCC[C@@H](O2)[C@H]1CC(C)C (single isomer, unassigned) [Compound 409, 12-(2,6-dimethylphenyl)-21-isobutyl-20-(5-isopropoxypyrimidin-2-yl)-8,8-dioxo-15-oxa-8λ^6-thia-1,9,11,22-tetrazatetracyclo[14.4.1.13,7.110,14]tricosa-3,5,7(23),10(22),11,13-hexaen-2-one] | + (+ is <30+) | –
12 | Cc1cccc(C)c1-c1cc2nc(n1)NS(=O)(=O)c1cccc(c1)C(=O)N1[C@@H](c3ncc(OC(C)C)cn3)CCC[C@@H](O2)[C@H]1CC(C)C (single isomer, unassigned) [Compound 407, 12-(2,6-dimethylphenyl)-21-isobutyl-20-(5-isopropoxypyrimidin-2-yl)-8,8-dioxo-15-oxa-8λ^6-thia-1,9,11,22-tetrazatetracyclo[14.4.1.13,7.110,14]tricosa-3,5,7(23),10(22),11,13-hexaen-2-one] | + (+ is <30+) | –
13 | Cc1cccc(C)c1-c1cc2nc(n1)NS(=O)(=O)c1cccc(c1)C(=O)N1C[C@@H](CCCC[C@@H]1c1ncc(OCc3ccccc3)cn1)O2 [Compound 416] | – | 30 to 60%
14 | Cc1cccc(C)c1-c1cc2nc(n1)NS(=O)(=O)c1cccc(c1)C(=O)N1[C@@H](c3cccc(N(C)C4CC5(CC5)C4)n3)CC[C@H]1[C@@H](CC(C)C)O2 [Compound 425] | – | 30 to 60%
15 | Cc1cccc(C)c1-c1cc2nc(n1)NS(=O)(=O)c1cccc(c1)C(=O)N1[C@@H](c3ncc(OC(C)C)cn3)CC[C@@H](O2)[C@H]1CC(C)C [Compound 418] | – | < 30%
16 | Cc1cccc(C)c1-c1cc2nc(n1)NS(=O)(=O)c1cccc(c1)C(=O)N1[C@@H](c3ncc(OC(C)C)cn3)CCC[C@@H](O2)[C@H]1CC(C)C [Compound 422] | + (+ is <30+) | –
17 | Cc1cccc(C)c1-c1cc2nc(n1)NS(=O)(=O)c1cccc(c1)C(=O)N1[C@@H](c3ncc(OC(C)C)cn3)CCC[C@@H](CC(C)C)[C@H]1CO2 (single isomer, unassigned) [Compound 395, 14-(2,6-dimethylphenyl)-8-isobutyl-4-(5-isopropoxypyrimidin-2-yl)-18,18-dioxo-11-oxa-18λ^6-thia-3,15,17,24-tetrazatetracyclo[17.3.1.112,16.03,9]tetracosa-1(22),12,14,16(24),19(23),20-hexaen-2-one] | ++ (++ is 30-60%) | –
18 | Cc1cccc(C)c1-c1cc2nc(n1)NS(=O)(=O)c1cccc(c1)C(=O)N1[C@@H](c3ncc(OC(C)C)cn3)CCC(C)(C)[C@H]1CO2 (single isomer, unassigned) [Compound 386, 13-(2,6-dimethylphenyl)-4-(5-isopropoxypyrimidin-2-yl)-7,7-dimethyl-17,17-dioxo-10-oxa-17λ^6-thia-3,14,16,23-tetrazatetracyclo[16.3.1.111,15.03,8]tricosa-1(21),11,13,15(23),18(22),19-hexaen-2-one] | + (+ is <30+) | –
19 | Cc1cccc(C)c1-c1cc2nc(n1)NS(=O)(=O)c1cccc(c1)C(=O)N1[C@@H](c3cncc(N(C)C4CCC4)n3)CC[C@H](O2)[C@H]1CC(C)C (single isomer, unassigned) [Compound 411] | – | 30 to 60%
20 | Cc1cccc(C)c1-c1cc2nc(n1)NS(=O)(=O)c1cccc(c1)C(=O)N1[C@@H](c3ncc(OC(C)C)cn3)CCC[C@@H](CC(C)C)[C@H]1CO2 (single isomer, unassigned) [Compound 399, 14-(2,6-dimethylphenyl)-8-isobutyl-4-(5-isopropoxypyrimidin-2-yl)-18,18-dioxo-11-oxa-18λ^6-thia-3,15,17,24-tetrazatetracyclo[17.3.1.112,16.03,9]tetracosa-1(22),12,14,16(24),19(23),20-hexaen-2-one] | + (+ is <30+) | –
21 | Cc1cccc(C)c1-c1cc2nc(n1)NS(=O)(=O)c1cccc(c1)C(=O)N1[C@@H](c3ncc(OC(C)C)cn3)CCC[C@@H](O2)[C@H]1CC(C)C (single isomer, unassigned) [Compound 406, 12-(2,6-Dimethylphenyl)-21-isobutyl-20-(5-isopropoxypyrimidin-2-yl)-8,8-dioxo-15-oxa-8λ^6-thia-1,9,11,22-tetrazatetracyclo[14.4.1.13,7.110,14]tricosa-3,5,7(23),10(22),11,13-hexaen-2-one] | +++ (+++ is >60%) | –
